The text below walks through data of patent publication US20100004171A1, “Therapeutic Methods for Neuropathic Pain” (priority 2006, published 2010).

Where no end group is shown, it is not given here.

Data set [1] deals with agrin protein. In words: Western blot of agrin protein in L3-5 spinal cord. It counts as in vivo, rat. Here is the method:
Western blot for detecting protein expression of agrin: Agrin protein was analyzed from L3-5 spinal cord with Western blot as described below at times of 1 day, 3 days, and 7 days post-surgery. The changes in these proteins between sham-operated, nerve-injured (no drug), and nerve-injured (pre-emptive drug) groups were analyzed.
Agrin Protein Extraction: The rats were deeply anesthetized with isoflurane and decapitated. Spinal cord L3-5 was quickly removed and immediately placed into tissue lysis buffer (1 ml, Sigma Co., St. Louis, Mo.) that contained protein enzyme inhibitors (1:100, Halt, Pierce). The tissue was homogenized for 2 min and incubated on ice for 45 min. The sample was then centrifuged at 10,000×g for 30 min at 4° C. The supernatant was transferred to a new tube and centrifuged again for further clarifying. The concentration of the protein was determined by an Agilent's Bio-Rad protein chip (Agilent's 2100 bioanalyzer, Santa Clara, Calif.) and by the […] (reagents from Bio-Rad).
(§1) Western blot: Protein (20 μg) from each sample was mixed with 2× electrophoresis buffer and boiled for 5 min. The samples, along with a negative control, were loaded on 4-15% acrylamide tris-glycine SDS gels and electrophoresed in a cell (Bio-Rad) for approximately 1 hr. A Hybond-P polyvinylidene difluoride membrane (Bio-Rad, Hercules, Calif.) was used for transferring the protein in a mini-trans-blot transfer cell (Bio-Rad) for 2 hr. The membrane was then soaked in 2% milk for 1 hour and probed with monoclonal agrin antibody (Agr510 and Agr530, 1:5000, StressGen Biotechnologies Corp., Victoria, Canada) or β-actin antibody (1:5000) at 4° C. overnight with continual shaking. The following day goat anti-mouse secondary antibody conjugated to Alexa Fluor680 (1:5000, Molecular Probe) was added to the membrane and incubated for 1 hr at room temperature. The samples were washed three times with TBS buffer (Tris Buffered Saline, DAKO, Carpinteria, Calif.) between steps. The membrane was then scanned with an Odyssey (LI-COR) scanner and analyzed by Odyssey software (Li-Cor, Lincoln, Nebr.).
In rats with tactile allodynia (a withdrawal threshold with a filament below 8 g), an intrathecal catheter (PE 10) was installed and linked to an osmotic pump (Alzet) in a 37° C. water bath. Following a bolus injection of SCP-1 (30 nmol/kg, 10 μl), agrin siRNA (100 nM) was intrathecally administered continuously by the pump at a rate of 5 μl/1 hour for 4 hr. The animals were subjected to von Frey filament test every 15 min for 4 hr to determine whether the effects of SCP-1 on allodynia suppression are blocked by agrin siRNA. A control siRNA (nFsiRNA) was applied in the same way. The behavioral data was analyzed for agrin effects. […]

For data set [2], the system named is tactile allodynia in allodynic rats. The experiment in a line: Tactile allodynia test (von Frey filaments, paw withdrawal threshold) in CCI (Bennett model) rats. It counts as in vivo, rat.
The next data set relates to NMDA receptors. The note with it: cited from earlier work; for effect on hyperalgesia and allodynia: given systemically and locally; for doses at which the effects are seen: reported by some researchers.
A further data set concerns agrin mRNA. In words: Rat lumbar spinal tissue culture, agrin mRNA by RT-PCR. In kind it is cell-based. The conditions noted are these: for agrin gene expression: 24 h. The protocol:
(§2) Spinal cord tissue culture: The dorsal horn of fresh rat lumbar spinal cord was cut into 1-mm sections with a sharp blade under sterile conditions and maintained in culture in 12-well plates with DMEM and 10% FBS. After 2 days, 100 μM NMDA was added to 6 wells. The other 6 wells were used as controls. The culture was maintained for 24 hr, and the tissue subjected to RNA and protein extraction as well as RT-PCR and Western blotting to examine alterations of agrin gene and protein, as described in this Example.
Following peripheral nerve injury, large amounts of glutamate, aspartate, and substance P are released into the extracellular space and excite post-synaptic neurons. […] Exogenous NMDA and substance P (“SP”) were used to culture rat lumbar spinal tissue. The normal dorsal part of lumbar spinal cord was cut into 0.5 mm slices and cultured in DMEM plus 10% FBS serum. After culturing for 24 h, the slices were treated with 100 μM NMDA with or without 10 nM substance P. Control slices were not treated with NMDA or substance P. Each group (experimental and control) had six samples. At 6 h and 24 h after treatment, the slices were subjected to RNA and protein extraction. The extractions were then assayed for agrin mRNA and agrin protein as described above in Examples 1-3. Briefly, the agrin mRNA was assayed using RT-PCR using C-terminal agrin primers for 36 cycles; and the agrin protein was assayed using Western Blot.

The test system of data set [3] is agrin protein. The experiment in a line: Rat lumbar spinal tissue culture, agrin protein by Western blot. In kind it is cell-based. The protocol: as §2
as §1, with “The following day goat anti-mouse secondary antibody conjugated to Alexa Fluor680 (1:5000, Molecular Probe) was added to the membrane and incubated for 1 hr at room temperature. The samples were washed three times with TBS buffer (Tris Buffered Saline, DAKO, Carpinteria, Calif.) between steps.” left out, “Nebr.). […]” for “Nebr.).”

Data set [4] has as its system tactile allodynia in allodynic rats. The experiment in a line: Tactile allodynia test (von Frey filaments, paw withdrawal threshold) in CCI (Bennett model) rats. The conditions noted are these: for effect on paw-withdrawal threshold: intrathecal 100 nmol in 10 μl in allodynic rats, day 7 after injury, up to 8 hr. In kind it is in vivo, rat. The source says: Bennett Model: In this model, approximately 0.8 cm of the left sciatic nerve was exposed and freed with sharpened scissors at middle-thigh level as described by Bennett and Xie.^[76] Four ligatures were placed loosely around the sciatic nerve with 4-0 chromic catgut, with 1 mm space between the ties, which compresses the nerve but epineural blood circulation is preserved. The tissue and skin were closed in layers. […] Most allodynia was seen during the time period of 7-14 days after the surgery.
Intrathecal catheter installation: A PE10 catheter, stretched to a somewhat thinner diameter in the distal part, was introduced into the spinal canal (subarachnoid space) via a 21 G (gauge) cannula between the L5 and L6 lamina and advanced to the lumbar enlargement in rats. The proximal part was tunneled under the skin and led out on the upper dorsal region. The location of the catheter was verified by the injection of 6 μl (50 mg/ml) xylocalne, such that a transient, flaccid paralysis of the legs was produced, and by X-ray after administration of 10 μl iodine contrast medium (Astra, Sweden). The catheter could be kept for up to two weeks in animals.^[79]
(§3) The maximum volume injected at any one time was 10 μl.^[79]
Tactile allodynia test: In a transparent glass chamber (20×20 cm) with a mesh net floor, each animal was subjected to the tactile allodynia test. A positive response is when an innocuous tactile stimulus induces a brief paw withdrawal away from the stimulation, similar to a paw withdrawal due to heat. A set of von Frey filaments from 0.01 to 28 g (Stoelting Co., Wood Dale, Ill.) were applied to the mid-paw of the allodynic rats at 1 gram, and then progressing up or down. The filament was pressed against the plantar surface for 1 to 2 seconds until it bent. Subsequent applications were made with a higher or lower von Frey filament depending on the animal response. The testing always began with normal paws. If a filament induced a brief paw withdrawal of a paw without bending in three out of five tests, the size of the filament was recorded as eliciting a positive withdrawal threshold.^[80] Allodynia was considered to be present when a withdrawal threshold was evoked by a filament corresponding to 8 grams or less.
In rats with tactile allodynia (a withdrawal threshold with a filament below 8 g), an intrathecal catheter (PE 10) was installed and linked to an osmotic pump (Alzet) in a 37° C. water bath. Following a bolus injection of SCP-1 (30 nmol/kg, 10 μl), agrin siRNA (100 nM) was intrathecally administered continuously by the pump at a rate of 5 μl/1 hour for 4 hr. The animals were subjected to von Frey filament test every 15 min for 4 hr to determine whether the effects of SCP-1 on allodynia suppression are blocked by agrin siRNA. A control siRNA (nFsiRNA) was applied in the same way. The behavioral data was analyzed for agrin effects. Immediately after behavioral experiments, the animals were sacrificed and subjected to protein extraction of lumbar spinal cord, followed by Western-blot analysis as described above.
A blind test was designed for intrathecal drug evaluations. Five days after CCI, rats were subjected to tactile allodynia tests with von Frey filaments. If a filament corresponding to 8 grams or less evoked a withdrawal response on the rat paw (at least 3 responses out of 5 stimuli), the value was designated as the allodynia threshold. […] Either a drug (100 nmol in 10 μl saline) or vehicle (only 10 μl saline) was pre-warmed and intrathecally injected into the allodynic rats. Then the rats were assayed for changes in allodynic and hyperalgesic behavior, agrin gene expression, and agrin protein changes. In addition, distribution and amount of agrin in the dorsal horn were visualized using immunostaining of L5 as reported above in Example 7.

Data set [5] can be described thus: Solubility for intrathecal injection. It counts as physicochemical. The protocol:
as §3

The test system of data set [6] is transitory inflammatory-induced hyperalgesia. The conditions noted are these: pain model with transitory inflammatory-induced hyperalgesia; cited from earlier work.
Data set [7] relates to thermal hyperalgesia in allodynic rats. In words: Thermal hyperalgesia test (paw withdrawal latency) in CCI (Bennett) rats. In kind it is in vivo, rat.
For a further data set, the system named is rodents. The note with it: rodents, dose of 6 mmol/kg; cited from earlier work.

Take “agrin siRNA: siRNA for C-terminal agrin, position 5994; sense GCCCUCAAAGUCCUGUGAUtt (SEQ ID NO: 11), antisense SEQ ID NO: 12 (sense GCCCUCAAAGUCCUGUGAUTT; antisense AUCACAGGACUUUGAGGGCTT; chemistry not given here)”: the “agrin protein level when injected with SCP-1” value in the data set with agrin protein [1] (siRNA plus SCP-1, allodynic rats, 2 h post-injection) is given as “did not return to normal levels”. Besides, in data set [2] (siRNA 100 nM intrathecally at 5 μl/hour continuously after bolus injection of SCP-1), the “effect on the SCP-1 effect on withdrawal threshold” value is “antagonized the SCP-1 and inhibited the effect on withdrawal threshold”.
Turning to `CNC1(c2ccccc2Cl)CCCCC1=O` (stereo not drawn) [ketamine], in the data set with NMDA receptors, the “effect on hyperalgesia and allodynia” value is “suppress hyperalgesia and allodynia”; the “doses at which the effects are seen” value is “only be seen at doses that induce ataxia”.
For `C[C@@H]([C@@H](O)c1ccc(O)cc1)N1CCC(O)(c2ccccc2)CC1` [(1S,2S)-1-(4-hydroxy-phynel)-2-(4-hydroxy-4-phenyl-piperidino)-1-propanol], the effect on hyperalgesia/allodynia result in the data set with NMDA receptors (animal models of neuropathic pain) is given as “depressed hyperalgesia/allodynia at a dose devoid of adverse effects”.
Regarding `CN[C@H](CC(=O)O)C(=O)O` [NMDA], the “agrin mRNA” value in the data set with agrin mRNA (100 μM NMDA with or without SP, 6 h) is reported as “No decrease in agrin mRNA”. Further, the agrin gene expression entry in the data set on agrin mRNA (100 μM NMDA, compared to controls without NMDA) is “visually less”. Also, the agrin protein result with agrin protein [3] (100 μM NMDA, 24 h) is recorded as “a decrease in agrin”.
As to `O=C(CNS(=O)(=O)c1ccccc1C(=O)O)Nc1ccc(O)cc1` [SCP-M1], the “effect on paw-withdrawal threshold” value in [4] is “a faster response and a faster return to normal values for withdrawal thresholds than was seen in SCP-1”. Further, in data set [5], the “solubility compared with SCP-1” value is “very similar to that of SCP-1”. Also, the “solubility in 45% 2-hydroxypropyl-α-cyclodextrin in saline” value in data set [5] (45% cyclodextrin in saline, 10 mM solutions prepared) was “can dissolve them”. Further, the solubility in water entry in data set [5] (water) is on record as “do not dissolve readily in water”. In addition, the analgesic activity result in data set [6] is “high analgesic activity”.
With `C[C@]12N[C@H](Cc3ccccc31)c1ccccc12` [MK801], in the data set on NMDA receptors, the “effect on hyperalgesia and allodynia” value is “suppress hyperalgesia and allodynia”; the “doses at which the effects are seen” value is on record as “only be seen at doses that induce ataxia”. The “effect on agrin protein decrease from NMDA receptor over-stimulation” value in the data set on agrin protein [3] (20 μM MK801 with either NMDA alone or NMDA plus substance P, 24 hr) is given as “blocked agrin decrease”.
As to `CC(=O)Nc1ccc(O)cc1` [APAP, acetaminophen, reference compound], in data set [7] (intrathecal 100 nmol in 10 μl, CCI (Bennett) rat model), the “increase in paw-withdrawal latency (thermal hyperalgesia)” value is “a similar effect on latency”. The “effect on paw-withdrawal latency at 120 min post injection” value in [7] (intrathecal 100 nmol, 120 min) is recorded as “dropped to the initial latency value”. Moreover, the “time after injection at which the effect began to diminish” value in data set [4] (intrathecal 100 nmol) is 90 min. Also, the “duration of effect on withdrawal threshold” value in data set [4] (intrathecal 100 nmol in 10 μl) was “short duration”. In addition, in data set [4], the “effect on paw-withdrawal threshold” value was “a less robust effect on the withdrawal threshold”. In addition, in data set [4] (intrathecal, same dose and volume (100 nmol in 10 μl)), the maximum withdrawal threshold result is reported as “about 22 g”. Further, in the data set on rodents, the lethality entry was “killed all the animals”. The agrin protein result with agrin protein [1] (pre-emptive intrathecal injection prior to CCI, 3 and 7 days) is recorded as “did not prevent the drop in agrin protein”. Moreover, in [2] (pre-emptive intrathecal 100 nmol in 10 μl saline immediately prior to CCI, 0, 3, 7 days), the “effect on tactile allodynia (paw withdrawal threshold)” value is listed as “showed an effect similar to SCP-1”. The “effect on paw withdrawal threshold at 7 days” value in [2] (pre-emptive intrathecal 100 nmol prior to CCI, 7 days after injury) was “sharply reduced”.
For “SP: substance P, increases NMDA receptor excitability by removing magnesium blocking (RPKPQQFFGLM-NH2; ends and bridges not checked; UniProt P20366 58-68, looked up)”, the agrin gene expression entry in the data set on agrin mRNA (10 nM substance P added to 100 μM NMDA) is reported as “enhanced the down-regulation by NMDA”.
